Data reported in the NIST ThermoML archive (doi:10.1021/acs.jced.8b00008).

Assay: xn = mol fraction of the nth substance listed
Settings: for surface tension liquid-gas: 293 K, Pendant drop shape; for viscosity / speed of sound / mass density: 102 kPa, Liquid; for viscosity: Concentric cylinders viscometry; for speed of sound: Single path-length method; for mass density: Vibrating tube method

CC1CCCCC1 [methylcyclohexane] + CCCCCCCCCCCC
Settings | surface tension liquid-gas [mN/m]
x1 = 0.1 | 24.86
x1 = 0.2001 | 24.84
x1 = 0.3 | 24.76
x1 = 0.4001 | 24.73
x1 = 0.5 | 24.5
x1 = 0.5999 | 24.34
x1 = 0.7 | 24.25
x1 = 0.7999 | 24.11
x1 = 0.9 | 23.95

Settings | mass density [kg/m3] | speed of sound [m/s] | viscosity [mPa·s]
293.15 K, x1 = 0.1 | 749.76 | 1293.1 | 1.41
293.15 K, x1 = 0.2001 | 750.92 | 1288.3 | 1.34
293.15 K, x1 = 0.3 | 752.24 | 1283.1 | 1.26
293.15 K, x1 = 0.4001 | 753.73 | 1277.5 | 1.18
293.15 K, x1 = 0.5 | 755.42 | 1271.7 | 1.11
293.15 K, x1 = 0.5999 | 757.37 | 1265.3 | 1.03
293.15 K, x1 = 0.7 | 759.54 | 1258.9 | 0.95
293.15 K, x1 = 0.7999 | 762.21 | 1251.8 | 0.875
293.15 K, x1 = 0.9 | 765.42 | 1244.3 | 0.798
298.15 K, x1 = 0.1 | 746.11 | 1273.6 | 1.29
298.15 K, x1 = 0.2001 | 747.24 | 1268.7 | 1.23
298.15 K, x1 = 0.3 | 748.53 | 1263.4 | 1.16
298.15 K, x1 = 0.4001 | 749.97 | 1257.7 | 1.09
298.15 K, x1 = 0.5 | 751.63 | 1251.7 | 1.04
298.15 K, x1 = 0.5999 | 753.5 | 1245 | 0.968
298.15 K, x1 = 0.7 | 755.59 | 1238.2 | 0.898
298.15 K, x1 = 0.7999 | 758.17 | 1230.8 | 0.828
298.15 K, x1 = 0.9 | 761.26 | 1222.7 | 0.755
303.15 K, x1 = 0.1 | 742.46 | 1254.3 | 1.2
303.15 K, x1 = 0.2001 | 743.56 | 1249.3 | 1.14
303.15 K, x1 = 0.3 | 744.81 | 1243.9 | 1.08
303.15 K, x1 = 0.4001 | 746.21 | 1238 | 1.02
303.15 K, x1 = 0.5 | 747.8 | 1231.9 | 0.959
303.15 K, x1 = 0.5999 | 749.62 | 1224.8 | 0.889
303.15 K, x1 = 0.7 | 751.64 | 1217.8 | 0.826
303.15 K, x1 = 0.7999 | 754.12 | 1209.9 | 0.762
303.15 K, x1 = 0.9 | 757.08 | 1201.4 | 0.696
313.15 K, x1 = 0.1 | 735.13 | 1216.3 | 1.01
313.15 K, x1 = 0.2001 | 736.17 | 1211.1 | 0.965
313.15 K, x1 = 0.3 | 737.34 | 1205.4 | 0.916
313.15 K, x1 = 0.4001 | 738.65 | 1199.2 | 0.871
313.15 K, x1 = 0.5 | 740.13 | 1192.9 | 0.858
313.15 K, x1 = 0.5999 | 741.83 | 1185.2 | 0.8
313.15 K, x1 = 0.7 | 743.69 | 1177.6 | 0.744
313.15 K, x1 = 0.7999 | 745.98 | 1169 | 0.689
313.15 K, x1 = 0.9 | 748.69 | 1159.5 | 0.63
323.15 K, x1 = 0.1 | 727.76 | 1178.9 | 0.892
323.15 K, x1 = 0.2001 | 728.74 | 1173.5 | 0.852
323.15 K, x1 = 0.3 | 729.83 | 1167.6 | 0.813
323.15 K, x1 = 0.4001 | 731.05 | 1161.1 | 0.774
323.15 K, x1 = 0.5 | 732.41 | 1154.4 | 0.732
323.15 K, x1 = 0.5999 | 733.97 | 1146.3 | 0.681
323.15 K, x1 = 0.7 | 735.69 | 1138.2 | 0.634
323.15 K, x1 = 0.7999 | 737.77 | 1128.8 | 0.589
323.15 K, x1 = 0.9 | 740.22 | 1118.3 | 0.538
333.15 K, x1 = 0.1 | 720.35 | 1142.5 | 0.783
333.15 K, x1 = 0.2001 | 721.26 | 1137 | 0.752
333.15 K, x1 = 0.3 | 722.26 | 1130.7 | 0.716
333.15 K, x1 = 0.4001 | 723.38 | 1124 | 0.692
333.15 K, x1 = 0.5 | 724.63 | 1116.6 | 0.641
333.15 K, x1 = 0.5999 | 726.06 | 1108.3 | 0.606
333.15 K, x1 = 0.7 | 727.61 | 1099.9 | 0.564
333.15 K, x1 = 0.7999 | 729.48 | 1089.6 | 0.527
333.15 K, x1 = 0.9 | 731.68 | 1078.2 | 0.48
